Test results: ChEMBL document CHEMBL3397035, “Spectral and biological evaluation of a synthetic antimicrobial peptide derived from 1-aminocyclohexane carboxylic acid” (2015)
In brackets after ≈: the same amount, converted by molar mass. Activity calls are given as the source filed them. The calls are words filed in the database; no cut-off is given here. Square brackets hold non-standard residues; d marks the D form. Peptide text beside a SMILES is read from it. Ac6c = NC1(C(=O)O)CCCCC1

Legend:
Acinetobacter baumannii = assay: Antibacterial activity against ampicillin, gentamicin, kanamycin, streptomycin, and tetracycline-resistant Acinetobacter baumannii WRAIR clinical isolate 13 after 24 hrs by standard broth microdilution method; assay type: functional; settings: WRAIR clinical isolate 13, 24 h
Lipopolysaccharide (LPS) [1] = assay: Binding affinity to lipopolysaccharides collected from Escherichia coli assessed as helical conformation with 40 mM sodium phosphate buffer at pH 6.8
Lipopolysaccharide (LPS) [2] = assay: Binding affinity to lipopolysaccharides collected from Klebsiella pneumoniae assessed as helical conformation with 40 mM sodium phosphate buffer at pH 6.8
Pseudomonas aeruginosa = assay: Antibacterial activity against Pseudomonas aeruginosa PAO1 after 24 hrs by standard broth microdilution method; assay type: functional; settings: PAO1, 24 h
Klebsiella pneumoniae = assay: Antibacterial activity against ampicillin, azithromycin, chloramphenicol, gentamicin, and tetracycline-resistant Klebsiella pneumoniae BAMS clinical isolate 07-18 after 24 hrs by standard broth microdilution method; assay type: functional; settings: BAMS clinical isolate 07-18, 24 h
Staphylococcus aureus = assay: Antibacterial activity against methicillin-sensitive Staphylococcus aureus UAMS-1 after 24 hrs by standard broth microdilution method; assay type: functional; settings: UAMS-1, 24 h
Lipid bilayer [3] = assay: Binding affinity to 3.5 mM small unilamellar vesicles containing 60% POPE/21%POPG/19%POPC with pH 6.8 sodium phosphate buffer by Far-UV-CD spectra
Klebsiella aerogenes = assay: Antibacterial activity against Enterobacter aerogenes after 24 hrs by standard broth microdilution method; assay type: functional
Lipid bilayer [4] = assay: Binding affinity to 3.5 mM small unilamellar vesicles containing 4:1 POPC/POPG with pH 6.8 sodium phosphate buffer by Far-UV-CD spectra
[5] = Binding affinity to 80 mM Dodecylphosphocholine micelles assessed as Lys connectivities with pH 4.4 sodium acetate buffer by TOCSY spectra
[6] = Binding affinity to sodium dodecyl sulfate micelles assessed as Lys connectivities with pH 4.4 sodium acetate buffer by TOCSY spectra
Enterococcus faecium = assay: Antibacterial activity against Enterococcus faecium MMC4 after 24 hrs by standard broth microdilution method; assay type: functional; settings: MMC4, 24 h
Lipid bilayer [7] = assay: Binding affinity to 3.5 mM small unilamellar vesicles containing POPC with pH 6.8 sodium phosphate buffer by Far-UV-CD spectra
Lipopolysaccharide (LPS) [8] = assay: Binding affinity to lipopolysaccharides collected from Pseudomonas aeruginosa assessed as helical conformation with 40 mM sodium phosphate buffer at pH 6.8

For `CC(=O)NCC(=O)N[C@@H](Cc1ccccc1)C(=O)NC1(C(=O)NCC(=O)NC2(C(=O)N[C@@H](CCCCN)C(=O)NC3(C(=O)NCC(=O)NC4(C(=O)N[C@@H](Cc5ccccc5)C(=O)NC5(C(=O)NCC(=O)NC6(C(=O)NCC(=O)N[C@@H](CCCCN)C(=O)NC7(C(=O)N[C@@H](CCCCN)C(=O)N[C@@H](CCCCN)C(=O)N[C@@H](CCCCN)C(=O)N[C@@H](CCCCN)C(N)=O)CCCCC7)CCCCC6)CCCCC5)CCCCC4)CCCCC3)CCCCC2)CCCCC1` (Ac-GF[Ac6c]G[Ac6c]K[Ac6c]G[Ac6c]F[Ac6c]G[Ac6c]GK[Ac6c]KKKK-NH2), the MIC (Acinetobacter baumannii) was 10.9 µM (≈ 24.9 µg/mL), the Activity (Lipopolysaccharide (LPS) [1]) was “Active” and the Activity (Lipopolysaccharide (LPS) [2]) was “Active”. It also gave an MIC (Pseudomonas aeruginosa) of 21.9 µM (≈ 50 µg/mL), an MIC (Klebsiella pneumoniae) of 43 µM (≈ 98.2 µg/mL) and an MIC (Staphylococcus aureus) of 10.9 µM (≈ 24.9 µg/mL). For the same molecule, the Activity (Lipid bilayer [3]) was “Active”, the MIC (Klebsiella aerogenes) was 21.9 µM (≈ 50 µg/mL) and the Activity (Lipid bilayer [4]) was “Active”. The Activity [5] was “Active”, the Activity [6] was “Active” and the MIC (Enterococcus faecium) was 10.9 µM (≈ 24.9 µg/mL). The Activity (Lipid bilayer [7]) was “inactive” and the Activity (Lipopolysaccharide (LPS) [8]) was “Active”.
